B1: 8762NT: human rDNA-derived DNA oligonucleotide CGGAGGGCGCGCGGGTCGGGGCGGCGGCGGCGGCGGCGGTGGCGGCGGCGGCGGGGGCGGCGGG (nucleic acid)
DNA: CGGAGGGCGCGCGGGTCGGGGCGGCGGCGGCGGCGGCGGTGGCGGCGGCGGCGGGGGCGGCGGG
modifications: chemistry not given here

Target: T1, recombinant nucleolin (Homo sapiens, UniProt P19338)
T1 construct: without the N-terminal acidic stretches domain
Assay: Nucleolin/nucleic acid ligand interaction, gel retardation assay
Format: binding
Design: key: A “+” represents the weakest nucleolin affinity; a “++++” represents the strongest nucleolin affinity
Conditions: relative affinity of each nucleic acid ligand for nucleolin; nucleolin ~250 nM, 32P-labeled ligand 10 or 250 nM, 30 minutes at room temperature
Protocol: The following assays can be used to assess the effects of compounds on interactions between nucleolin and nucleic acid ligands capable of forming quadruplex (QP) and hairpin (HP) secondary structures. Nucleic acid ligands tested were a cMyc QP DNA having nucleotide sequence 5′-[…]-3′ and a HP pre-rRNA region to which nucleolin binds, having the sequence 5′-[…]-3′. In the assays, recombinant nucleolin (˜250 nM), which has been fused to maltose binding protein, and has the sequence under accession number NM_005381 without the N-terminal acidic stretches domain, is incubated with each of the two ^32P-labeled nucleic acid ligands (10 or 250 nM). Nucleolin and the nucleic acid ligand are incubated in the presence or absence of a test compound 7 in an incubation buffer (12.5 mM Tris, pH 7.6, 60 mM KCl, 1 mM MgCl2, 0.1 mM EDTA, 1 mM DTT, 5% glycerol, 0.1 mg/ml BSA) for 30 minutes at room temperature.
The resulting complexes are separated on a 6% DNA retardation gel using 0.5× TBE with 20 mM KCl as a running buffer. The assay also can be conducted using nucleic acid ligands derived from human ribosomal DNA, whereby one can identify a compound that selectively modulates formation of a nucleolin/nucleic acid complex that depends on the conformation of the nucleic acid. Sequences of suitable nucleic acids are shown in the preceding example. […] A “+” represents the weakest nucleolin affinity and a “++++” represents the strongest nucleolin affinity. […] Using nucleic acids such as these having known conformational properties, one can identify a compound such as the compounds described herein that selectively interferes with binding of nucleolin to a particular quadruplex structure.

T1 sequence (P19338 284-710 limits assumed): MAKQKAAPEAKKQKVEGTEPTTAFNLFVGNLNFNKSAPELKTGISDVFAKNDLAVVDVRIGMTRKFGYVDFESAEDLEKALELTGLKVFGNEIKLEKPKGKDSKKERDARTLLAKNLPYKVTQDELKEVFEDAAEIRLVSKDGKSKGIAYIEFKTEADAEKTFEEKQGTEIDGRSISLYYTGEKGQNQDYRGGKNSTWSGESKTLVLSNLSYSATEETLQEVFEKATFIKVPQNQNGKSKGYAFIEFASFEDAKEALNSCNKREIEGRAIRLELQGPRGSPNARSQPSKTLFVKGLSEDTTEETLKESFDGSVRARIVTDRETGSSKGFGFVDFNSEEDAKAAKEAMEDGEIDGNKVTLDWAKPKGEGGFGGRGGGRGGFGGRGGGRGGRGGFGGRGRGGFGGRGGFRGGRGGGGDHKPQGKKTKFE

Molecule	Affinity for Nucleolin
6183NT: human rDNA-derived DNA oligonucleotide GGGTCGGGGGCGGTGGTGGGCCCGCGGGGG (chemistry not given here) [Compound 6183NT]	+
7733T: human rDNA-derived DNA oligonucleotide GGGAGGGGCACGGGCCGGGGGCGGGACGGG (chemistry not given here) [Compound 7733T]	+
8511NT: human rDNA-derived DNA oligonucleotide GGGGGTGGGCGGGCGGGGCCGGGGGTGGG (chemistry not given here) [Compound 8511NT]	++++
8749NT: human rDNA-derived DNA oligonucleotide GGGAGGGCGCGCGGGTCGGGG (chemistry not given here) [Compound 8749NT]	+
11028NT: human rDNA-derived DNA oligonucleotide GGGGCGCGGCGGGGGGAGAAGGGTCGGGGCGGCAGGGG (chemistry not given here) [Compound 11028NT]	+
B1	++++
